# Experimental data as given in patent US8497245B2, “Trypsin-like serine protease inhibitors, their preparation and use as selective inhibitors of the clotting factors IIa and Xa” (The Medicines Company (Leipzig) GmbH, priority 2010, dated 2013).
# Structures can show the parent of a compound that is named as a salt.
# Target: T1, Subcomponent "s" of Human Complement Component 1 (h C1s) (Homo sapiens, UniProt P09871)
# T1 construct: purchased Calbiochem
# T1 sequence (P09871 438-688 limits assumed): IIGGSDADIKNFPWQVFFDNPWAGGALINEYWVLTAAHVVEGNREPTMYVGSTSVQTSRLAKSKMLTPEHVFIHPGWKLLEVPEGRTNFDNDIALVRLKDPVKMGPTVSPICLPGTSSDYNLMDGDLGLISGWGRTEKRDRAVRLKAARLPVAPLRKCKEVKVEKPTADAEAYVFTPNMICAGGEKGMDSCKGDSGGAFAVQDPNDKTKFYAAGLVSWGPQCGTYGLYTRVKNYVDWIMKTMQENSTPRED
# T1 sequence (P09871 16-437 partner limits assumed): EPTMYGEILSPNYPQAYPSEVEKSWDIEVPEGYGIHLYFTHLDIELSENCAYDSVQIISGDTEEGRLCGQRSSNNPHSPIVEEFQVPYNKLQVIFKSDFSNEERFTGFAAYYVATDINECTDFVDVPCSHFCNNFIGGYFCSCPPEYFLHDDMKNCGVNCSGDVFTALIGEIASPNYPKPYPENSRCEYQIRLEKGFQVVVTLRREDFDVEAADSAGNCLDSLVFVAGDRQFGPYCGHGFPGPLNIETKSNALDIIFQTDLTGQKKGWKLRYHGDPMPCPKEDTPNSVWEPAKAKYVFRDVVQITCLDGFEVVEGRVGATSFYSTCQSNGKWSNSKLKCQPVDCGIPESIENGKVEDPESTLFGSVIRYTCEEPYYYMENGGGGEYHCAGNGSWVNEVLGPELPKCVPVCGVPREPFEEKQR
# Experiment: Inhibition of human C1s (reference enzyme)
# Assay type: biochemical
# Details: S-2314 substrate; read-out: Ki h Cls
# Description: (§1) The inhibitory effect against the individual purified enzymes was determined in analogy to a previously disclosed method (Stürzebecher et al., J. Med. Chem., 40, 3091-3099 (1997)).
# (§2) The release of p-nitroaniline (p-NA, the chromogenic product of the proteolytic activity), was determined by change in absorbance at 405 nm. The equilibrium rates were used to calculate the inhibitor/enzyme dissociation constant (Ki values) by parameter fitting in accordance with the rate equation for competitive inhibition using GraFit (version 4 from Erithacus). The results are reported as Ki values (nanomolar) in table 7 and are the average of at least three determinations.
# (§3) Dissociation constants were calculated as described herein.
row,Ki [µM],Compound
1,> 20,NCc1ccc(Cl)cc1CNC(=O)[C@@H]1CCCN1C(=O)[C@@H](CC(=O)N1CC[C@H](O)C1)NS(=O)(=O)Cc1ccccc1 [Compound 2.10]
2,> 100,"NCc1ccc(Cl)cc1CNC(=O)[C@@H]1CCN1C(=O)[C@@H](CC(=O)N1CCNCC1)NS(=O)(=O)Cc1ccccc1 [Compound 2.50, Bzls-D-Asp(piperazinyl)-L-Aze-Amb(2-AMe-5-Cl)×2 TFA]"

# Target: T2, Human plasmin (h plasmin) (Homo sapiens, UniProt P00747)
# T2 construct: purchased Calbiochem
# T2 sequence (P00747 581-810 limits assumed): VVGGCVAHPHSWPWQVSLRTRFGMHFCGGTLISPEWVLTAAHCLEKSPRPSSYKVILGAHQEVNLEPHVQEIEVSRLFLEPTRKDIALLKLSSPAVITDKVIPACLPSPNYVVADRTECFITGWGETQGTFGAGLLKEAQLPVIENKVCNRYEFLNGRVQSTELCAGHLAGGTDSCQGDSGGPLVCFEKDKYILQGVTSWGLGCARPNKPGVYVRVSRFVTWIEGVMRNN
# T2 sequence (P00747 97-580 partner limits assumed): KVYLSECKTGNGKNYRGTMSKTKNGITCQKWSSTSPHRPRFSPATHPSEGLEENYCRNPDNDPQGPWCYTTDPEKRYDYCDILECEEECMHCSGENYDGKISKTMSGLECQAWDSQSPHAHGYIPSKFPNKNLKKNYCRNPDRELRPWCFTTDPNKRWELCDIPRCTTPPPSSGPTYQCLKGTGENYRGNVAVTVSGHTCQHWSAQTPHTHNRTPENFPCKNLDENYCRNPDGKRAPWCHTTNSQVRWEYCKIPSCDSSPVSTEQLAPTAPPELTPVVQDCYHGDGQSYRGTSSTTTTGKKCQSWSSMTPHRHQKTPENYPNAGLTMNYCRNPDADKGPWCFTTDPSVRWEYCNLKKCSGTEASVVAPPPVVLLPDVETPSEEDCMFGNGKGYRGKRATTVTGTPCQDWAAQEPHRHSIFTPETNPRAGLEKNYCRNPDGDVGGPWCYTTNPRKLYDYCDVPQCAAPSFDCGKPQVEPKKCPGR
# Experiment: Inhibition of human plasmin (reference enzyme)
# Assay type: biochemical
# Details: Chromozym PL substrate
# Description: as §1, §2, §3
row,Ki [µM],Compound
1,> 10,NCc1ccc(Cl)cc1CNC(=O)[C@@H]1CCCN1C(=O)[C@@H](CC(=O)N1CC[C@H](O)C1)NS(=O)(=O)Cc1ccccc1 [Compound 2.10]
2,> 15,"NCc1ccc(Cl)cc1CNC(=O)[C@@H]1CCN1C(=O)[C@@H](CC(=O)N1CCNCC1)NS(=O)(=O)Cc1ccccc1 [Compound 2.50, Bzls-D-Asp(piperazinyl)-L-Aze-Amb(2-AMe-5-Cl)×2 TFA]"

# Target: T3, Human urokinase type plasminogen activator (h u-PA) (Homo sapiens, UniProt P00749)
# T3 construct: purchased MEDAC GmbH Urokinase HS medac
# Experiment: Inhibition of human urokinase type plasminogen activator (reference enzyme)
# Assay type: biochemical
# Details: H-Glu-Gly-Arg-pNA substrate
# Description: as §1, §2, §3
row,Ki [µM],Compound
1,> 100,NCc1ccc(Cl)cc1CNC(=O)[C@@H]1CCCN1C(=O)[C@@H](CC(=O)N1CC[C@H](O)C1)NS(=O)(=O)Cc1ccccc1 [Compound 2.10]
2,> 25,"NCc1ccc(Cl)cc1CNC(=O)[C@@H]1CCN1C(=O)[C@@H](CC(=O)N1CCNCC1)NS(=O)(=O)Cc1ccccc1 [Compound 2.50, Bzls-D-Asp(piperazinyl)-L-Aze-Amb(2-AMe-5-Cl)×2 TFA]"

# Target: T4, Human tissue-type plasminogen activator (h t-PA) (Homo sapiens, UniProt P00750)
# T4 construct: purchased Boehringer Ingelheim Actilyse
# T4 sequence (P00750 36-562): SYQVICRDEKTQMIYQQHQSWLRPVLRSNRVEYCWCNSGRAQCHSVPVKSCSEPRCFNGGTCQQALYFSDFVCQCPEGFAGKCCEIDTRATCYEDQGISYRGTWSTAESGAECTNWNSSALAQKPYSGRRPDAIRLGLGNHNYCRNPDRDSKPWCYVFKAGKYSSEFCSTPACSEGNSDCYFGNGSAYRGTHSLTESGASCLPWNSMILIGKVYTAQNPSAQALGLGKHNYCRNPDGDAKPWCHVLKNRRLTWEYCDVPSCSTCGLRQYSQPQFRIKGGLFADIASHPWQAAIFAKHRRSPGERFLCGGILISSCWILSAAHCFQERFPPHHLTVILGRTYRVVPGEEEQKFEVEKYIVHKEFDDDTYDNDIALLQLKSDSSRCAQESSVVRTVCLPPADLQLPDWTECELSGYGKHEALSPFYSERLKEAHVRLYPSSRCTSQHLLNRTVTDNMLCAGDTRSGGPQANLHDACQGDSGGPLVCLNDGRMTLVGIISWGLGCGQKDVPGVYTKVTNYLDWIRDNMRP
# Experiment: Inhibition of human tissue-type plasminogen activator (reference enzyme)
# Assay type: biochemical
# Details: Pefachrome tPA substrate; read-out: Ki h t-PA
# Description: The equilibrium rates were used to calculate the inhibitor/enzyme dissociation constant (Ki values) by parameter fitting in accordance with the rate equation for competitive inhibition using GraFit (version 4 from Erithacus).
# as §3
row,Ki [µM],Compound
1,> 10,NCc1ccc(Cl)cc1CNC(=O)[C@@H]1CCCN1C(=O)[C@@H](CC(=O)N1CC[C@H](O)C1)NS(=O)(=O)Cc1ccccc1 [Compound 2.10]
2,> 20,"NCc1ccc(Cl)cc1CNC(=O)[C@@H]1CCN1C(=O)[C@@H](CC(=O)N1CCNCC1)NS(=O)(=O)Cc1ccccc1 [Compound 2.50, Bzls-D-Asp(piperazinyl)-L-Aze-Amb(2-AMe-5-Cl)×2 TFA]"

# Target: T5, Subcomponent "r" of Human Complement Component 1 (h C1r) (Homo sapiens, UniProt P00736)
# T5 construct: purchased Calbiochem
# T5 sequence (P00736 464-705 limits assumed): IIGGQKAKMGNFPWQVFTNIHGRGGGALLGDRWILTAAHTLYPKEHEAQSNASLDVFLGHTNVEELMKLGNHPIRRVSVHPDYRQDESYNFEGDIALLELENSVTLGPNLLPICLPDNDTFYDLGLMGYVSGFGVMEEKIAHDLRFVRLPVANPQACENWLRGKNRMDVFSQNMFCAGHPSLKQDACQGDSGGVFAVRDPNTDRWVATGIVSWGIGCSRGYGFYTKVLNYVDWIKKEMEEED
# T5 sequence (P00736 18-463 partner limits assumed): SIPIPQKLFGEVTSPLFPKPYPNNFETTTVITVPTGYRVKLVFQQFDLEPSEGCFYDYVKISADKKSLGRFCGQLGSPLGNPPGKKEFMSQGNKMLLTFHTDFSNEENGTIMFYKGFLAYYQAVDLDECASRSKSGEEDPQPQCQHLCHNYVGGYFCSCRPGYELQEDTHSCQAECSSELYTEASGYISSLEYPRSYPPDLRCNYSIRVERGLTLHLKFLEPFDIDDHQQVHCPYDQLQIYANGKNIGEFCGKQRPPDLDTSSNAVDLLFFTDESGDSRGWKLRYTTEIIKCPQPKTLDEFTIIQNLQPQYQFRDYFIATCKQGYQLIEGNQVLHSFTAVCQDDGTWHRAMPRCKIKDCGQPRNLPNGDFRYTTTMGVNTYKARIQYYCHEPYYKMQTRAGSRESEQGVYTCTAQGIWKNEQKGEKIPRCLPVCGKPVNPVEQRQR
# Experiment: Inhibition of human C1r (reference enzyme)
# Assay type: biochemical
# Details: S-2314 substrate; read-out: Ki h Clr
# Description: as §1, §2, §3
row,Ki [µM],Compound
1,> 20,NCc1ccc(Cl)cc1CNC(=O)[C@@H]1CCCN1C(=O)[C@@H](CC(=O)N1CC[C@H](O)C1)NS(=O)(=O)Cc1ccccc1 [Compound 2.10]
2,> 100,"NCc1ccc(Cl)cc1CNC(=O)[C@@H]1CCN1C(=O)[C@@H](CC(=O)N1CCNCC1)NS(=O)(=O)Cc1ccccc1 [Compound 2.50, Bzls-D-Asp(piperazinyl)-L-Aze-Amb(2-AMe-5-Cl)×2 TFA]"

# Target: T6, human factor IIa (human alpha-thrombin) (Homo sapiens, UniProt P00734)
# T6 construct: human alpha-thrombin from Enzyme Research Laboratories; purchased Enzyme Research Laboratories
# Experiment: Inhibition constants for human factor IIa, chromogenic substrate assay
# Assay type: biochemical
# Details: 25° C., Pefachrome tPA substrate, average of at least three determinations; read-out: Ki h FIIa
# Description: as §1
# (§4) 200 μL of TBS (0.05 M trishydroxymethylaminomethane; 0.154 M NaCl, 2% ethanol, pH 8.0)
# as §2
row,Ki [µM],Compound
1,0.0009,NCc1ccc(Cl)cc1CNC(=O)[C@@H]1CCCN1C(=O)[C@@H](CC(=O)N1CC[C@H](O)C1)NS(=O)(=O)Cc1ccccc1 [Compound 2.10]
2,0.014,"NCc1ccc(Cl)cc1CNC(=O)[C@@H]1CCN1C(=O)[C@@H](CC(=O)N1CCNCC1)NS(=O)(=O)Cc1ccccc1 [Compound 2.50, Bzls-D-Asp(piperazinyl)-L-Aze-Amb(2-AMe-5-Cl)×2 TFA]"

# Target: T7, Human Activated Protein C (h aPC) (Homo sapiens, UniProt P04070)
# T7 construct: purchased Enzyme Research Laboratories
# T7 sequence (P04070 212-450 limits assumed): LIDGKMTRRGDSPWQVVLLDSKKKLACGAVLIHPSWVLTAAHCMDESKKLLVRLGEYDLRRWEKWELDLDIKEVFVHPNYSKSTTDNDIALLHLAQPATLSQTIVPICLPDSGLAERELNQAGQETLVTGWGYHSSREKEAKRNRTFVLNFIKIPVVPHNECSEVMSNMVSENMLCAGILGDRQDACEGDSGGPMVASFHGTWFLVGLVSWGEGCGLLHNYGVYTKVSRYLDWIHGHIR
# T7 sequence (P04070 43-197 partner limits assumed): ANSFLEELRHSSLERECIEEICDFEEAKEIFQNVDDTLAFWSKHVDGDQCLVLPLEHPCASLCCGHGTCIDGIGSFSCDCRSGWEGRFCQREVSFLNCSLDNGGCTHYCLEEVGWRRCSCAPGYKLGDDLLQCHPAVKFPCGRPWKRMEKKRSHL
# Experiment: Inhibition of human activated protein C (reference enzyme)
# Assay type: biochemical
# Details: Pefachrome PCa substrate
# Description: as §1, §2, §3
row,Ki [µM],Compound
1,> 20,NCc1ccc(Cl)cc1CNC(=O)[C@@H]1CCCN1C(=O)[C@@H](CC(=O)N1CC[C@H](O)C1)NS(=O)(=O)Cc1ccccc1 [Compound 2.10]
2,> 100,"NCc1ccc(Cl)cc1CNC(=O)[C@@H]1CCN1C(=O)[C@@H](CC(=O)N1CCNCC1)NS(=O)(=O)Cc1ccccc1 [Compound 2.50, Bzls-D-Asp(piperazinyl)-L-Aze-Amb(2-AMe-5-Cl)×2 TFA]"

# Target: T8, Human plasma kallikrein (h PK) (Homo sapiens, UniProt P03952)
# T8 construct: purchased Enzyme Research Laboratories
# T8 sequence (P03952 391-638 limits assumed): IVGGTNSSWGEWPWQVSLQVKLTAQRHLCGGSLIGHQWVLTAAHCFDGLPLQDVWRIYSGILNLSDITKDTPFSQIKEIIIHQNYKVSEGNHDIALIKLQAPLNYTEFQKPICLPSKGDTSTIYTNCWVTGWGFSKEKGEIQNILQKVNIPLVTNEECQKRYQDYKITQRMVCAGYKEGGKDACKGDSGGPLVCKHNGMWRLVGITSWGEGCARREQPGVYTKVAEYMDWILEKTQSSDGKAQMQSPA
# T8 sequence (P03952 20-390 partner limits assumed): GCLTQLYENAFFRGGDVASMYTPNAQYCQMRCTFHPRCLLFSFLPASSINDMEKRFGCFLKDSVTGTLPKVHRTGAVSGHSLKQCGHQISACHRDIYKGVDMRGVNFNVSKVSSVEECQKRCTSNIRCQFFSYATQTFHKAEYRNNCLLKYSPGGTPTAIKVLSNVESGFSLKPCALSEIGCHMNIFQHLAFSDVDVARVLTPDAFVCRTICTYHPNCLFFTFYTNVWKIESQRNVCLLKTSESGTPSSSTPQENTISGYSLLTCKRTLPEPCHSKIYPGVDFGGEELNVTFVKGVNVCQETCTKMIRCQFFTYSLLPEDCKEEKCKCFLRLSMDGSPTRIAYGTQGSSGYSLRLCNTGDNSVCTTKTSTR
# Experiment: Inhibition of human plasma kallikrein (reference enzyme)
# Assay type: biochemical
# Details: S2302 substrate
# Description: as §1, §2, §3
row,Ki [µM],Compound
1,0.83,NCc1ccc(Cl)cc1CNC(=O)[C@@H]1CCCN1C(=O)[C@@H](CC(=O)N1CC[C@H](O)C1)NS(=O)(=O)Cc1ccccc1 [Compound 2.10]
2,3.34,"NCc1ccc(Cl)cc1CNC(=O)[C@@H]1CCN1C(=O)[C@@H](CC(=O)N1CCNCC1)NS(=O)(=O)Cc1ccccc1 [Compound 2.50, Bzls-D-Asp(piperazinyl)-L-Aze-Amb(2-AMe-5-Cl)×2 TFA]"

# Target: T9, Human urinary kallikrein (h uKK) (Homo sapiens, UniProt P06870)
# T9 construct: purchased Lee Biosolutions
# T9 sequence (P06870 25-262): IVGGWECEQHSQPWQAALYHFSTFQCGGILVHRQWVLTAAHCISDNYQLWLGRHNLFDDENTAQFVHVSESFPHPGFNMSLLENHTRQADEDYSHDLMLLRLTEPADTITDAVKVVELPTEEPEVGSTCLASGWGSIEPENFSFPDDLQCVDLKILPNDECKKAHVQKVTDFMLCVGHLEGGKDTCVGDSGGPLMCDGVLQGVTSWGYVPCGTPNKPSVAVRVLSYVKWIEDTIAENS
# Experiment: Inhibition of human urinary kallikrein (reference enzyme)
# Assay type: biochemical
# Details: S-2266 substrate
# Description: as §1, §2, §3
row,Ki [µM],Compound
1,> 100,NCc1ccc(Cl)cc1CNC(=O)[C@@H]1CCCN1C(=O)[C@@H](CC(=O)N1CC[C@H](O)C1)NS(=O)(=O)Cc1ccccc1 [Compound 2.10]
2,> 100,"NCc1ccc(Cl)cc1CNC(=O)[C@@H]1CCN1C(=O)[C@@H](CC(=O)N1CCNCC1)NS(=O)(=O)Cc1ccccc1 [Compound 2.50, Bzls-D-Asp(piperazinyl)-L-Aze-Amb(2-AMe-5-Cl)×2 TFA]"

# Target: T10, human Factor Xa (Homo sapiens, UniProt P00742)
# T10 construct: human Factor Xa from Enzyme Research Laboratories; purchased Enzyme Research Laboratories
# T10 sequence (P00742 235-488 limits assumed): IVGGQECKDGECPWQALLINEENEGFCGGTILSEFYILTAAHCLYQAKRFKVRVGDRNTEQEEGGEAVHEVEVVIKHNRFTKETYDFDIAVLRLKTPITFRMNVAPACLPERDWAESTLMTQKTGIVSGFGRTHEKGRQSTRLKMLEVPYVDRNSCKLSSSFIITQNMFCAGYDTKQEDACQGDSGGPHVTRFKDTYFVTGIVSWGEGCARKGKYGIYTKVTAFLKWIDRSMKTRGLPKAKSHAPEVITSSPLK
# T10 sequence (P00742 41-179 partner limits assumed): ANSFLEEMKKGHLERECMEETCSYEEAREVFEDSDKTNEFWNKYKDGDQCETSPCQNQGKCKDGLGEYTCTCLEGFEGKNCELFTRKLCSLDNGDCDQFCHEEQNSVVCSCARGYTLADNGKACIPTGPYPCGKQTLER
# Experiment: Inhibition constants for human factor Xa, chromogenic substrate assay
# Assay type: biochemical
# Details: 25° C., Pefachrome FXa substrate, average of at least three determinations; read-out: Ki h FXa
# Description: as §1, §4, §2
row,Ki [µM],Compound
1,0.0011,NCc1ccc(Cl)cc1CNC(=O)[C@@H]1CCCN1C(=O)[C@@H](CC(=O)N1CC[C@H](O)C1)NS(=O)(=O)Cc1ccccc1 [Compound 2.10]
2,0.0052,"NCc1ccc(Cl)cc1CNC(=O)[C@@H]1CCN1C(=O)[C@@H](CC(=O)N1CCNCC1)NS(=O)(=O)Cc1ccccc1 [Compound 2.50, Bzls-D-Asp(piperazinyl)-L-Aze-Amb(2-AMe-5-Cl)×2 TFA]"
